In US7795332B2, “Method of removing fluorinated carboxylic acid from aqueous liquid” (priority 2005, dated 2010):
Marks after values point to notes of the source that are not given here.

Assay: Determination of bio-accumulation: urinary clearance pharmacokinetic study in rats
Conditions: for T½: renal elimination half-life, urine by fluorine NMR, exponential curve fitting; for Compound-related Effects: 73 micro Moles per kg oral gavage, clinical signs and gross necropsy 96 hours post-dose
[1] = recovery of administered amount in urine after 96 h, 73 micro Moles per kg, oral gavage
[2] = 73 micro Moles per kg, oral gavage
[3] = no parent compound in urine, based on elimination of the major metabolite C3F7-O-CHFCOO-, 73 micro Moles per kg, oral gavage

Structure (SMILES) | % Recovery (96 h) [1] [%] | T½ [2] [h] | Compound-related Effects | % Recovery (96 h) [3] | T½ (h) [3]
N.O=C(O)C(F)(F)OC(F)(F)C(F)(F)C(F)(F)OC(F)(F)F [Compound 1, CF3—O—(CF2)3—O—CF2—COONH4] | 73 | – | – | – | –
N.O=C(O)C(F)(F)OC(F)(F)OC(F)(F)F [Compound 2, CF3—OCF2—O—CF2—COONH4] | 96 | 12 | – | – | –
N.O=C(O)C(F)(F)OC(F)(F)OC(F)(F)OC(F)(F)F [Compound 3, CF3—OCF2—OCF2—OCF2—COONH4] | 100 | 12 | – | – | –
N.O=C(O)C(F)(F)OC(F)(F)C(F)(F)C(F)(F)OC(F)(F)F [Compound 4, CF3—(OCF2)3—OCF2—COONH4] | 50 | – | – | – | –
N.O=C(O)C(F)(F)C(F)(F)OC(F)(F)F [Compound 6, CF3—O—CF2—CF2—COONH4] | 100 | 11 | – | – | –
N.O=C(O)C(F)(F)C(F)(F)OC(F)(F)C(F)(F)F [Compound 7, C2F5—O—CF2—CF2—COONH4] | 100 | 10 | – | – | –
N.O=C(O)C(F)(F)C(F)(F)OC(F)(F)C(F)(F)C(F)(F)F [Compound 8, C3F7—O—CF2—CF2—COONH4] | 82 | 12 | – | – | –
N.O=C(O)C(F)(F)C(F)(F)OC(F)(F)C(F)(F)C(F)(F)C(F)(F)F [Compound 9, C4F9—O—CF2—CF2—COONH4] | 42 | 31 | Hepatomegaly | – | –
N.O=C(O)C(F)(F)C(F)OC(F)(F)C(F)(F)C(F)(F)OC(F)(F)F (stereo not shown) [Compound 11, CF3—O—CF2—CF2—CF2—O—CHF—CF2—COONH4] | 84 | 12 | – | – | –
N.O=C(O)C(F)OC(F)(F)C(F)(F)C(F)(F)OC(F)(F)F (stereo not shown) [Compound 12, CF3—O—CF2—CF2—CF2—O—CHF—COONH4] | 95 | 11 | – | – | –
N.O=C(O)C(F)(F)C(F)OC(F)(F)C(F)(F)C(F)(F)F (stereo not shown) [Compound 13, C3F7—O—CFH—CF2COONH4] | 94 | 11 | – | – | –
N.O=C(O)C(F)(F)C(F)(F)C(F)(F)C(F)(F)C(F)(F)OC(F)C(F)(F)F (stereo not shown) [Compound 14, CF3—CFH—O—(CF2)5—COONH4] | 32 | 24 | Hepatomegaly | – | –
N.O=C(O)C(F)(F)C(F)(F)C(F)(F)OC(F)C(F)(F)F (stereo not shown) [Compound 15, CF3—CFH—O—(CF2)3—COONH4] | 95 | 8 | – | – | –
N.O=C(O)COC(F)(F)C(F)OC(F)(F)C(F)(F)C(F)(F)F (stereo not shown) [Compound 16, C3F7—O—CFH—CF2—O—CH2—COONH4] | – | – | – | 65* % | 13* h
N.O=C(O)C(F)(F)C(F)(F)C(F)(F)C(F)(F)C(F)(F)C(F)(F)C(F)(F)F [Compound C-1, C7F15COONH4, reference compound] | 6 | ~550 | Hepatomegaly | – | –
N.O=C(O)C(F)(F)OC(F)(F)C(F)(OC(F)(F)C(F)(F)C(F)(F)F)C(F)(F)F (stereo not shown) [Compound C-3, CF3CF2CF2OCF(CF3)CF2OCF2COONH4, reference compound] | 5 | 95 | Hepatomegaly | – | –
